Test results taken from patent US12077503B2, “Substituted cyclic amides and their use as herbicides” (FMC CORPORATION, priority 2015, dated 2024).

Tests used:
Format in all cases: in vivo
[1] = test system: pigweed (Amaranthus retroflexus); test: Test A postemergence; conditions: Amaranthus retroflexus, post-emergence, 240 h, Postemergence, read-out: Plant response rating, Pigweed
Summary of the method: (§1)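 Ratings of 0 (no effect) to 100 (complete control) come from visual comparison with untreated controls roughly 10 d after treatment. Test chemicals, formulated in a non-phytotoxic solvent mixture with surfactant, were applied either as a preemergence directed soil spray on seeded soil or postemergence to one- to two-leaf plants 2 to 10 cm tall.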

[2] = test system: giant foxtail (Setaria faberii); test: Test A postemergence; conditions: Setaria faberi, post-emergence, 240 h, Postemergence, read-out: Plant response rating, Foxtail, Giant
Summary of the method: as §1

[3] = test system: ragweed (common ragweed, Ambrosia elatior); test: Test A postemergence; conditions: Ambrosia artemisiifolia, post-emergence, 240 h, Postemergence, read-out: Plant response rating, Ragweed
Summary of the method: as §1

[4] = test system: wheat (Triticum aestivum); test: Test A postemergence; conditions: Triticum aestivum, post-emergence, 240 h, Postemergence, read-out: Plant response rating, Wheat
Summary of the method: as §1

Kochia (Kochia scoparia) [5] = test: Test A postemergence; conditions: Bassia scoparia, post-emergence, 240 h, Postemergence, read-out: Plant response rating, Kochia
Summary of the method: as §1

[6] = test system: blackgrass (Alopecurus myosuroides); test: Test A postemergence; conditions: Alopecurus myosuroides, post-emergence, 240 h, Postemergence, read-out: Plant response rating, Blackgrass
Summary of the method: as §1

[7] = test system: Galium (catchweed bedstraw, Galium aparine); test: Test A postemergence; conditions: Galium, post-emergence, 240 h, Postemergence, read-out: Plant response rating, Galium
Summary of the method: as §1

[8] = test system: ryegrass, Italian (Italian ryegrass, Lolium multiflorum); test: Test A postemergence; conditions: Lolium multiflorum, post-emergence, 240 h, Postemergence, read-out: Plant response rating, Ryegrass, Italian
Summary of the method: as §1

corn (Zea mays) = test: Test A postemergence; conditions: Zea mays, post-emergence, 240 h, Postemergence
Summary of the method: as §1

[9] = test system: barnyardgrass (Echinochloa crus-galli); test: Test A postemergence; conditions: Echinochloa crus-galli, post-emergence, 240 h, Postemergence, read-out: Plant response rating, Barnyardgrass
Summary of the method: as §1

[10] = test system: pigweed (Amaranthus retroflexus); test: Test A preemergence; conditions: Amaranthus retroflexus, pre-emergence, 240 h, Preemergence
[11] = test system: giant foxtail (Setaria faberii); test: Test A preemergence; conditions: Setaria faberi, pre-emergence, 240 h, Preemergence
Summary of the method: as §1

[12] = test system: ragweed (common ragweed, Ambrosia elatior); test: Test A preemergence; conditions: Ambrosia artemisiifolia, pre-emergence, 240 h, Preemergence
Summary of the method: as §1

Kochia (Kochia scoparia) [13] = test: Test A preemergence; conditions: Bassia scoparia, pre-emergence, 240 h, Preemergence
Summary of the method: as §1

[14] = test system: ryegrass, Italian (Italian ryegrass, Lolium multiflorum); test: Test A preemergence; conditions: Lolium multiflorum, pre-emergence, 240 h, Preemergence
Summary of the method: as §1

[15] = test system: barnyardgrass (Echinochloa crus-galli); test: Test A preemergence; conditions: Echinochloa crus-galli, pre-emergence, 240 h, Preemergence
Summary of the method: as §1

[16] = test system: ducksalad (Heteranthera limosa); test: Test B flooded paddy test; conditions: Heteranthera limosa, 250 g ai/ha, Flood; 0 to 100 scale where 0 is no effect and 100 is complete control; read-out: Ducksalad plant response rating
Summary of the method: (§2)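 Percent control, visually estimated after 13–15 d in the greenhouse on a 0–100 basis, compares treated pots with untreated ones; compound was put into paddy water 3 cm above the soil when plants had two leaves.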

rice (Oryra sativa) = test: Test B flooded paddy test; conditions: Oryza sativa, 250 g ai/ha, Flood; 0 to 100 scale where 0 is no effect and 100 is complete control; read-out: Rice plant response rating
Summary of the method: as §2

[17] = test system: sedge, umbrella (small-flower umbrella sedge, Cyperus difformis); test: Test B flooded paddy test; conditions: Cyperus difformis, 250 g ai/ha, Flood; 0 to 100 scale where 0 is no effect and 100 is complete control; read-out: Sedge, Umbrella plant response rating
Summary of the method: as §2

[18] = test system: barnyardgrass (Echinochloa crus-galli); test: Test B flooded paddy test; conditions: Echinochloa crus-galli, 250 g ai/ha, Flood; 0 to 100 scale where 0 is no effect and 100 is complete control; read-out: Barnyardgrass plant response rating
Summary of the method: as §2

[19] = 125 g ai/ha, visual injury after approximately 10 d, 0 to 100 scale where 0 is no effect and 100 is complete control
[20] = 31 g ai/ha, visual injury after approx. 10 d, 0 to 100 scale, 0 no effect, 100 complete control

For O=C(Nc1cccc(Cl)c1F)[C@H]1C(=O)N(C2CC2)CC[C@@H]1c1ccc(F)cc1 [Compound 1006], the pest or weed control at 125 g/ha [1, 19] was 0%, the pest or weed control at 31 g/ha [1, 20] was 0% and the pest or weed control at 125 g/ha [2, 19] was 0%. It also gave a pest or weed control at 31 g/ha [2, 20] of 0%, a pest or weed control at 125 g/ha [3, 19] of 10% and a pest or weed control at 31 g/ha [3, 20] of 10%. The plant injury at 125 g/ha [4, 19] was 0%, the plant injury at 31 g/ha [4, 20] was 0% and the pest or weed control at 125 g/ha (Kochia (Kochia scoparia) [5]; [19]) was 0%. The pest or weed control at 31 g/ha (Kochia (Kochia scoparia) [5]; [20]) was 0%, the pest or weed control at 125 g/ha [6, 19] was 0% and the pest or weed control at 31 g/ha [6, 20] was 0%. It also gave a pest or weed control at 125 g/ha [7, 19] of 0%, a pest or weed control at 31 g/ha [7, 20] of 0% and a pest or weed control at 125 g/ha [8, 19] of 0%. For the same compound, the pest or weed control at 31 g/ha [8, 20] was 0%, the Corn plant response rating (crop injury, 0 = no effect, 100 = complete kill) at 125 g/ha (corn (Zea mays); [19]) was 10% and the Corn plant response rating (crop injury, 0 = no effect, 100 = complete kill) at 31 g/ha (corn (Zea mays); [20]) was 0%. It also gave a pest or weed control at 125 g/ha [9, 19] of 0%, a pest or weed control at 31 g/ha [9, 20] of 0% and a pest or weed control at 31 g/ha ([10]; 31 g ai/ha, 0 to 100 scale where 0 is no effect and 100 is complete control, read-out: Pigweed plant response rating) of 0%. The pest or weed control at 125 g/ha ([10]; 125 g ai/ha, visual injury rating after approximately 10 d, read-out: Pigweed plant response rating (0 to 100 scale, 0 is no effect, 100 is complete control)) was 0%, the pest or weed control at 125 g/ha ([11]; 125 g ai/ha, visual injury rating after approximately 10 d, read-out: Foxtail, Giant plant response rating (0 to 100 scale, 0 is no effect, 100 is complete control)) was 0% and the pest or weed control at 31 g/ha ([11]; 31 g ai/ha, 0 to 100 scale (0 no effect, 100 complete control), read-out: Plant response rating, Foxtail, Giant) was 0%. It also gave a pest or weed control at 31 g/ha ([12]; 31 g ai/ha, 0 to 100 scale where 0 is no effect and 100 is complete control, read-out: Ragweed plant response rating) of 0%, a pest or weed control at 125 g/ha ([12]; 125 g ai/ha, visual injury rating after approximately 10 d, read-out: Ragweed plant response rating (0 to 100 scale, 0 is no effect, 100 is complete control)) of 0% and a pest or weed control at 31 g/ha (Kochia (Kochia scoparia) [13]; 31 g ai/ha, 0 to 100 scale where 0 is no effect and 100 is complete control, read-out: Kochia plant response rating) of 0%. It also gave a pest or weed control at 125 g/ha (Kochia (Kochia scoparia) [13]; 125 g ai/ha, visual injury rating after approximately 10 d, read-out: Kochia plant response rating (0 to 100 scale, 0 is no effect, 100 is complete control)) of 0%, a pest or weed control at 31 g/ha ([14]; 31 g ai/ha, 0 to 100 scale where 0 is no effect and 100 is complete control, read-out: Ryegrass, Italian plant response rating) of 0% and a pest or weed control at 125 g/ha ([14]; 125 g ai/ha, visual injury rating after approximately 10 d, read-out: Ryegrass, Italian plant response rating (0 to 100 scale, 0 is no effect, 100 is complete control)) of 0%. It also gave a pest or weed control at 125 g/ha ([15]; 125 g ai/ha, visual injury rating after approximately 10 d, read-out: Barnyardgrass plant response rating (0 to 100 scale, 0 is no effect, 100 is complete control)) of 0%, a pest or weed control at 31 g/ha ([15]; 31 g ai/ha, 0 to 100 scale (0 no effect, 100 complete control), read-out: Plant response rating, Barnyardgrass) of 0% and a pest or weed control at 250 g/ha [16] of 0%. It also gave a pest or weed control at 250 g/ha (rice (Oryra sativa)) of 0%, a pest or weed control at 250 g/ha [17] of 0% and a pest or weed control at 250 g/ha [18] of 0%.
